Measured values: US12677850B2, “Stevia blends containing rebaudioside B” (Tate & Lyle Solutions USA LLC, priority 2011, dated 2026)
Values belong to the compound of their own block, whether it stands above or below them.

How the values were obtained:
[1] = test system: panelists (descriptive panel); assay: Descriptive panel: flavor attributes and intensities as a function of rebaudioside B content (Example 6); assay type: in vivo, human; conditions: for Anise, comparison between the samples / Artificial Sweetener/Chemical, comparison between the samples / Sweetness, comparison between the samples / Total Flavor, comparison between the samples / True Bitter, comparison between the samples / Mouthcoating, comparison between the samples / Total Off Flavor, comparison between the samples: significant at the 95% confidence level
Experimental: A descriptive panel was used to quantify flavor attributes and intensities of varying levels of rebaudioside B added to rebaudioside A (which was 97% pure and contained 0.62% rebaudioside B). […] An 8% sucrose solution as a control. The solutions were prepared in neutral pH water. Other high intensity sweeteners included in the testing were Aspartame at 500 ppm, ASK at 750 ppm, Sucralose at 250 ppm, and Stevia at 500 ppm.
Before conducting the testing the ten panelists were extensively trained in the use of standardized vocabulary to describe the appearance, aroma, flavor, and texture of a wide variety of products in order to rate the samples for sweetness, bitterness, off flavor, chemical or artificial sweetener flavor, anise, and mouth coating. Each such attribute was evaluated on a first and second sip, and on after-taste. The testing began with a session to orient the panelists during which they tasted the samples and discussed the flavor characteristics. They also tasted and discussed references for “sweet”, “bitter”, and “anise”.
During the second and third days of testing, the panelists evaluated the samples for the various attributes and rated them on a scale from none to extreme that encompasses all food ingredient products, not just sweeteners. The products and solutions set forth in Table 19 were used to “anchor” the panelist to the scales.
Eight samples were evaluated per session. A 7 minute rest break was given between each sample and a 15 minute break was given after the first 4 samples had been evaluated. Two evaluations (i.e. replicates) were obtained from each panelist for each product; therefore, a total of 20 judgments were obtained for each product. During data collection, the panelists were instructed to indicate the intensity of each sensory characteristic by placing a vertical slash on 15-cm line scales. The serving order was balanced, with products seen approximately an equal number of times in each possible position. In the waiting room, ambient Alhambra drinking water, unsalted soda crackers, and celery were provided for cleansing the palate between samples.
Slash marks on the line scales were converted to numbers ranging from 1 to 15 by SIMS, the computerized sensory data collection system. Mean intensities were calculated for each sensory characteristic. Analysis of Variance and Duncan's Multiple Range Test, where appropriate, were used to determine significant differences among the samples for each attribute. When panelist-by-product interactions were significant, the mean square of the interaction term, instead of the mean square of the error term, was used in calculation of the product F values.
The flavor attributes were also compared between the samples.

[2] = assay type: physicochemical; conditions: pH 3
Experimental: To determine the solubility of rebaudioside A and rebaudioside B in certain solutions, four stock solutions were prepared. A 10× concentrated citric acid/sodium citrate pH 3 stock buffer solution was prepared by dissolving 0.9 g anhydrous citric acid and 0.26 g of sodium citrate dihydrate in water to make 100 mL of buffer (0.047 M citric acid+0.0088 M sodium citrate). A 2500 ppm (nominal) solution of rebaudioside A was prepared by dissolving 0.125 g of GLG RA 97 to make 50 mL of solution. A 2500 ppm (nominal) solution of stevioside was prepared by dissolving 0.125 g of GLG STV 97 to make 50 mL of solution. A 1000 ppm (nominal) solution of rebaudioside B was prepared by diluting 56 mL of a solution assayed at 1790 ppm to make 100 mL of solution.
These solutions were mixed as 1 mL total amounts by micropipetting the volumes, in microliters, into 1.5 mL microcentrifuge tubes As shown in Table 14.
After standing for […] (~100 hours), the tubes were spun in a bench top microcentrifuge to pelletize the precipitate. The clear supernate was sampled into vials and assayed for glycosides using a reverse phase high performance liquid chromatograph (HPLC) gradient method with UV detection (Waters 2695 Separations Module equipped with a Waters 2487 Dual X Absorbance Detector or equivalent instrumentation) that is summarized in Table 15. The HPLC conditions were as follows:
The supernatant data collected from the HPLC were processed using DESIGN EXPERT 8 software. Briefly, the data were entered into the program as “factor” data as a 2 factor-5 level general factorial design as the nominal data which were then converted to numerical data and replaced by the actual HPLC results. The software then selected a model that predicted the concentration (solubility) of rebaudioside B as a function of the concentration of rebaudioside A and stevioside in the supernatant. The software also calculated a number of statistical factors that indicated the significance of the model parameters.

informal testers = assay: Informal testing of bitterness; assay type: in vivo, human; conditions: adding about 20%; as believed by several informal testers
Description: Because the scale used encompasses “the universe”, the magnitude of differences between the 97% rebaudioside A solution and increasing levels of rebaudioside B is not as large as other informal testing determined.

[3] = test system: Tate & Lyle employees (taste panel); assay: Paired comparison test for sweetness and preference in pH 3.1 citric acid buffer (Examples 1 and 2); assay type: in vivo, human
Experimental: A commercial blend of a steviol glycosides was dissolved in 0.0056 M citric acid buffer pH 3.1. A solution containing a commercially available sweetening composition containing 97% rebaudioside A was similarly prepared. Thirty-one […] employees participated in paired comparison tests for sweetness and preference. The products were made up in pH 3.1 citric acid buffer (0.9 grams anhydrous citric […], Decatur, IL) and 026 grams sodium citrate dihydrate ([…], Decatur, IL) per liter and tested at room temperature in two ounce soufflé cups label with random three-digit codes. The presentation order was rotated. The panelists were asked to identify the solution that was sweeter and which they like better. The ballot was presented and the data was collected with SIMS sensory software (Sensory Computer Systems, LLC, Morristown, NJ). Bottled water, a 2% sucrose solution, and unsalted crackers were available for the panelists to clear their palates before and during testing. The results of the sweetness and preference questions were analyzed with the binomial test and the Thurstonian d' calculated. The p-value for a one-tailed binomial test is calculated as [formula] where c is the number of successes, n is the number of trials, and p0 is the chance probability. A test is considered statistically significant when the p-value is less than the a priori set alpha risk. The two-tailed p-value is double the one-tailed p-value as calculated above. Thurstonian d' is a linear measure of psychophysical difference. A d' of 1 is generally considered to be a just-noticeable-difference (JND) where a stimulus will be judge stronger in 75% of the trials. The Thurstonian d' is independent of test method and for paired comparison tests is calculated as pc=Φ(d'/√{square root over (2)}) where pc is the proportion of successes, and Φ(•) is the cumulative distribution function of the standard normal distribution. These statistical terms are more fully defined in standard textbooks on the subject such as “Sensory Discrimination Tests and Measurements”, Jian Bi (Blackwell Publishing, 2006). The instructions for the paired comparison test were: • (i) It is important that you rinse before and between samples. • (ii) Clear your palate with a bite of cracker. Then rinse with the sugar water. […] Pick the sample that you like more and pick the sample that is sweeter. They may or may not be the same sample. If you are not sure or don't have a preference then pick either one. The questions for the paired comparison test were: • (i) Which of these two samples do you like more?, • (ii) Which of the two samples is sweeter? The glycoside blend of a steviol glycosides was dissolved in 0.0056 M citric acid buffer pH 3.1. A solution containing a commercially available sweetening composition containing 97% rebaudioside A was similarly prepared. The two solutions were presented to a panel of […] employees and they were asked to identify the solution that was sweeter and which they like better using the same instructions and questions as set forth above. The results of the sweetness and preference questions were analyzed with the binomial test and the Thurstonian d' calculated as set forth above. A taste panel was asked to compare a commercial mixture of rebaudioside A and stevioside to a 500 ppm sample of 97% rebaudioside A. The glycoside blend of steviol glycosides was dissolved in 0.0056 M citric acid buffer pH 3.1. A solution containing a commercially available sweetening composition containing 97% rebaudioside A was similarly prepared. Sample presentation was rotated and the samples of the two solutions (at room temperature) were presented to a panel of […] employees and they were asked to identify the solution that was sweeter and which they like better using the same instructions and questions as in Example 1. […] Another panel was asked to compare a mixture of rebaudioside B and Stevioside. The glycoside blend of steviol glycosides was dissolved in 0.0056 M citric acid buffer pH 3.1. […]

[4] = test system: Tate & Lyle employees (taste panel); assay: Paired comparison test for sweetness and preference, Reb A/Reb B mixture vs 900 ppm 97% rebaudioside A (Example 3); assay type: in vivo, human; conditions: 536 ppm Reb A + 310 ppm Reb B vs control 900 ppm Reb A; spring water with phosphoric acid; room temperature; test sample tasted first
Experimental: A taste panel was asked to compare a commercial mixture of rebaudioside A and rebaudioside B and a 900 ppm sample of 97% rebaudioside A. Tate &Lyle employees participated in paired comparison tests for sweetness and preference. Samples were tested at room temperature in two ounce soufflé cups label with random three-digit code& The presentation order was not rotated because of carryover of the off-flavor of rebaudioside A at 900 ppm. The panelist evaluated the test sample first and then the control 900 ppm rebaudioside A sample. The panelists were instructed not to re-taste the samples. Additionally, the panelists were required to wait one minute between testing samples and instructed to clear their palates with a 2% sucrose solution, an unsalted cracker, and bottled water. The panelists were asked to identify the solution that was sweeter and which they like better. The ballot was presented and the data was collected with SIMS sensory software (Sensory Computer Systems, LLC, Morristown, NJ).
The instructions for the paired comparison test were: • (i) It is important that you rinse before and between samples. • (ii) Clear your palate with a bite of cracker. Then rinse with the sugar water. […]

[5] = 900 ppm rebaudioside A+rebaudioside B in neutral pH water, 8% sucrose control, 15-cm line scale converted to 1 to 15, aftertaste
[6] = 900 ppm rebaudioside A+rebaudioside B in neutral pH water, 8% sucrose control, 15-cm line scale converted to 1 to 15, first sip
[7] = 900 ppm rebaudioside A+rebaudioside B in neutral pH water, 8% sucrose control, 15-cm line scale converted to 1 to 15, second sip
[8] = Commercial Blend (total 518 mg/l) vs 97% rebaudioside A (total 498), room temperature, 31 panelists
[9] = Rebaudioside A & stevioside blend (total 789 mg/l) vs 500 ppm 97% rebaudioside A, 41 panelists
[10] = Rebaudioside B & stevioside blend (total 801 mg/l) vs 97% rebaudioside A (500 ppm), 43 panelists
[11] = Rebaudioside B blend (total 496 mg/l, about 21% Reb B) vs 97% rebaudioside A (total 498), 38 panelists

Compound: OC[C@H]1O[C@@](CO)(O[C@H]2O[C@H](CO)[C@@H](O)[C@H](O)[C@H]2O)[C@@H](O)[C@@H]1O [Sucrose, sucrose]
ANISE: Aftertaste (mean intensity) [1, 5]: 0.13
ARTIFICIAL SWEETENER/CHEMICAL: Aftertaste (mean intensity) [1, 5]: 0.12
SWEET: Aftertaste (mean intensity) [1, 5]: 3.92
TOTAL FLAVOR: Aftertaste (mean intensity) [1, 5]: 4.32
TRUE BITTER: Aftertaste (mean intensity) [1, 5]: 0.15
ANISE: First Sip (mean intensity) [1, 6]: 0.52
ARTIFICIAL SWEETENER/CHEMICAL: First Sip (mean intensity) [1, 6]: 0.59
MOUTHCOATING: First Sip (mean intensity) [1, 6]: 0.76
SWEET: First Sip (mean intensity) [1, 6]: 8.06
TOTAL FLAVOR: First Sip (mean intensity) [1, 6]: 8.67
TOTAL OFF FLAVOR: First Sip (mean intensity) [1, 6]: 0.89
TRUE BITTER: First Sip (mean intensity) [1, 6]: 0.29
ANISE: Second Sip (mean intensity) [1, 7]: 0.41
ARTIFICIAL SWEETENER/CHEMICAL: Second Sip (mean intensity) [1, 7]: 0.41
MOUTHCOATING: Second Sip (mean intensity) [1, 7]: 0.89
SWEET: Second Sip (mean intensity) [1, 7]: 7.43
TOTAL FLAVOR: Second Sip (mean intensity) [1, 7]: 7.86
TOTAL OFF FLAVOR: Second Sip (mean intensity) [1, 7]: 0.49
TRUE BITTER: Second Sip (mean intensity) [1, 7]: 0.24
Anise, comparison between the samples ([1]; aftertaste): Lowest
Artificial Sweetener/Chemical, comparison between the samples ([1]; aftertaste): Lowest
Sweetness, comparison between the samples ([1]; aftertaste): Lowest
Total Flavor, comparison between the samples ([1]; aftertaste): Lowest
True Bitter, comparison between the samples ([1]; aftertaste): Lowest
Anise, comparison between the samples ([1]; first sip): Lowest
Artificial Sweetener/Chemical, comparison between the samples ([1]; first sip): Lowest
Mouthcoating, comparison between the samples ([1]; first sip): Lowest
Sweetness, comparison between the samples ([1]; first sip): Lowest
Total Flavor, comparison between the samples ([1]; first sip): Lowest
Total Off Flavor, comparison between the samples ([1]; first sip): Lowest
True Bitter, comparison between the samples ([1]; first sip): Lowest
Anise, comparison between the samples ([1]; second sip): Lowest
Artificial Sweetener/Chemical, comparison between the samples ([1]; second sip): Lowest
Mouthcoating, comparison between the samples ([1]; second sip): Lowest
Total Flavor, comparison between the samples ([1]; second sip): Lowest
Total Off Flavor, comparison between the samples ([1]; second sip): Lowest
True Bitter, comparison between the samples ([1]; second sip): Lowest

effect of its presence on the solubility of rebaudioside B [2]: slightly reduces
Compound: C=C1C[C@@]23CC[C@H]4[C@@](C)(CCC[C@@]4(C)C(=O)O[C@@H]4O[C@H](CO)[C@@H](O)[C@H](O)[C@H]4O)[C@@H]2CC[C@]1(O[C@@H]1O[C@H](CO)[C@@H](O)[C@H](O)[C@H]1O[C@@H]1O[C@H](CO)[C@@H](O)[C@H](O)[C@H]1O)C3 [stevioside]

effect of its presence on the solubility of rebaudioside B [2]: increases
Compound: rebaudioside A
reduction of bitterness ([1]; adding about 20%, results from the descriptive panel of tasters): about 30%
reduction of bitterness (informal testers): about 80%

Compound: rebaudioside A [97% rebaudioside A]
# preferring [3, 8]: 20
# sweeter [3, 8]: 15
# preferring [3, 9]: 37
# sweeter [3, 9]: 19
# preferring [3, 10]: 22
# sweeter [3, 10]: 13
# preferring [3, 11]: 11
# sweeter [3, 11]: 11

Compound: rebaudioside A [control 900 ppm Reb A]
preference (number of panelists preferring the sample) [4]: 2
sweetness (number of panelists choosing the sample as sweeter) [4]: 15
